We go through 3 compounds from patent US10328080B2, “Therapeutic combination of PI3K inhibitor and a BTK inhibitor” (Acerta Pharma B.V., priority 2013, dated 2019).

The test system of assay [1] is KPC derived mouse pancreatic cancer cells. In words: KPC derived mouse pancreatic cancer model, tumor infiltrating MDSCs and TAMs. The assay is classed as in vivo. To be noted: 15 mg/kg/BID given orally. How it is done:
In this study, KPC derived mouse pancreatic cancer cells (KrasG12D;Trp53R^872H;Pdx1-Cre) were injected into the pancreases.
Single cell suspensions from tumor samples. Mouse tumor tissue was collected and stored in PBS/0.1% soybean trypsin inhibitor prior to enzymatic dissociation. Samples were finely minced with a scissors and mouse tissue was transferred into DMEM containing 1.0 mg/ml collagenase IV (Gibco), 0.1% soybean trypsin inhibitor, and 50 U/ml DNase (Roche) and incubated at 37 C for 30 min. with constant stirring while human tissue was digested in 2.0 mg/ml collagenase IV, 1.0 mg/ml hyluronidase, 0.1% soybean trypsin inhibitor, and 50 U/ml DNase for 45 minutes. Suspensions were filtered through a 100 micron filter and washed with FACS buffer (PBS/0.5% BSA/2.0 mM EDTA) prior to staining. Two million total cells were stained with antibodies as indicated. Intracellular detection of FoxP3 was achieved following permeabilization with BD Perm Buffer III (BD Biosciences) and eBioscience Fix/Perm respectively. Following surface staining, samples were acquired on a BD Fortessa and analyzed using FlowJo (Treestar) software.

Assay [2] deals with pancreatic tumor-bearing mice. The assay can be described thus: Orthotopic pancreatic cancer model (KPC cells in C57BL/6 mice). The assay is classed as in vivo. The conditions noted are these: aggressive orthotopic PDA model, 15 mg/kg oral of each drug. How it is done: Cell line derived from KrasG12D;Trp53R^872H;Pdx1-Cre (KPC) mice were orthotopically implanted into the head of the pancreas after 35 passages. Based on the mice background from where the cell lines were generated, 1×10^6 cells were injected in C57BL/6 mice. Throughout the experiment, animals were provided with food and water ad libitum and subjected to a 12-h dark/light cycle. Animal studies were performed in accordance with the U.S. Public Health Service “Guidelines for the Care and Use of Laboratory Animals” (IACUC). After euthanization, pancreatic tumors were dissected out, weighed and single cell suspensions were prepared for flow cytometry analysis.

The test system of assay [3] is canine B cell lymphoma. The assay can be described thus: Veterinary clinical trial in companion dogs with lymphoma. The format is in vivo. The conditions noted are these: Arm 1 monotherapy, Arm 2 combination. Here is the method:
Enrollment has completed for Arm 1 and is ongoing for Arm 2.
Intra-subject dose escalation was allowed. Six of the 11 dogs that initiated at 2.5 or 5 mg/kg once daily were escalated and completed the study with dosages of 10 mg/kg twice daily. Among all the dose cohorts, 8 dogs had shrinkage of target lesions >20%; the best tumor responses were between 45-49% reduction in the sum of target lesions in two dogs.

Assay [4] relates to human platelets, GPVI. In words: GPVI platelet aggregation (Convulxin-induced). The assay is classed as cell-based. To be noted: CVX-induced, FIG. 56 and FIG. 57. How it is done:
GPVI platelet aggregation was measured for Formula (XVIII) and Formula XX-A (ibrutinib). Blood was obtained from untreated humans, and platelets were purified from […] by centrifugation. Cells were resuspended to a final concentration of […] in buffer containing 145 mmol/L NaCl, 10 mmol/L HEPES, 0.5 mmol/L Na2HPO4, 5 mmol/L KCl, 2 mmol/L MgCl2, 1 mmol/L CaCl2, and 0.1% glucose, at pH 7.4. Stock solutions of […] were prepared on the day of experimentation and added to platelet suspensions 5 minutes (37° C., 1200 rpm) before the induction of aggregation. Aggregation was assessed with a Chronolog Lumi-Aggregometer (model 540 VS; Chronolog, Havertown, Pa.) and permitted to proceed for 6 minutes after the addition of agonist. The results are reported as maximum percent change in light transmittance from baseline with platelet buffer used as a reference.
In FIG. 57, the results of CVX-induced (250 ng/mL) human platelet aggregation results before and 15 min after administration of the BTK inhibitors to 6 healthy individuals are shown.

For assay [5], the system named is ID8 ovarian cancer. The assay can be described thus: ID8 syngeneic orthotropic ovarian cancer murine model. The assay is classed as in vivo, mice. The conditions noted are these: 15 mg/kg/BID given orally. The text has this: Human ovarian cancer models, including the ID8 syngeneic orthotropic ovarian cancer model and other animal models, are described in Fong and Kakar, J. Ovarian Res. 2009, 2, 12; Greenaway et al., Gynecol. Oncol. 2008, 108, 385-94; Urzua et al., Tumour Biol. 2005, 26, 236-44; Janat-Amsbury et al., Anticancer Res. 2006, 26, 3223-28; Janat-Amsbury et al., Anticancer Res. 2006, 26, 2785-89. […] The results of the study are shown in FIG. 42, FIG. 43, FIG. 44, FIG. 45, FIG. 46, FIG. 47, FIG. 48, and FIG. 49.

In assay [6] the test system is human platelet-mediated thrombosis. In words: In vivo human thrombus formation in the VWF HA1 mice model (laser injury). The conditions noted are these: human platelets preincubated with BTK inhibitor (0.1, 0.5 or 1 μM) 30 min; laser-induced injury in VWF HA1 mice.
Description: Purified human platelets were preincubated with various concentrations of the BTK inhibitors (0.1 μM, 0.5 μM, or 1 μM) or DMSO and then administered to VWF HA1 mice, followed by laser-induced thrombus formation.
The objective of this study was to evaluate in vivo thrombus formation in the presence of BTK inhibitors.

Take `CC#CC(=O)N1CCC[C@H]1c1nc(-c2ccc(C(=O)Nc3ccccn3)cc2)c2c(N)nccn12` [Formula (XVIII), (S)-4-(8-amino-3-(1-(but-2-ynoyl)pyrrolidin-2-yl)imidazo[1,5-a]pyrazin-1-yl)-N-(pyridin-2-yl)benzamide]: the Tumor burden entry in assay [1] was “reduction”. Also, the Tumor burden entry in assay [2] is reported as “significantly reduced”. In assay [2] (flow cytometry), the Immature myeloid infiltrate entry is given as “decreased”, the “Number of immunosuppressive Tregs” value is “reduced” and the “Number of tumor associated macrophages” value is “reduced”. Also, the “Complete responses (CR)” value in assay [3] is recorded as “not observed”. In assay [3] (preliminary), the “Median time on study (all subjects)” value is listed as 24 days. The “Inhibition of GPVI platelet aggregation” value in assay [4] is “does not”. Also, in assay [5] (tumor-bearing mice), the “CD8+ T cells” value is reported as “increase”, the “Immunosuppressive tumor associated Tregs” value was “significant reduction” and the Immunosuppressive tumor-associated lymphocytes entry is “significant reduction”. The “Immunosuppressive B cells” value in assay [5] (tumor-bearing mice, total B cells and Bregs) is given as “significant reduction”. The “ID8 ovarian cancer growth” value in assay [5] (vs vehicle) is given as “impairs”.

For the compound `C=CC(=O)N1CCC[C@@H](n2nc(-c3ccc(Oc4ccccc4)cc3)c3c(N)ncnc32)C1` [Formula XX-A, 1-[(3R)-3-[4-amino-3-(4-phenoxyphenyl)-1H-pyrazolo[3,4-d]pyrimidin-1-yl]piperidin-1-yl]prop-2-en-1-one, reference compound], in assay [6], the “Effect on human platelet-mediated thrombus formation” value was “able to limit this process”. Further, the “Inhibition of GPVI platelet aggregation” value in assay [4] is recorded as “significantly inhibits”.

As to `C=CC(=O)Nc1cccc(Nc2nc(Nc3ccc(OCCOC)cc3)ncc2F)c1` [Formula XXVII, N-(3-((5-fluoro-2-((4-(2-methoxyethoxy)phenyl)amino)pyrimidin-4-yl)amino)phenyl)acrylamide], the “Effect on human platelet-mediated thrombus formation” value in assay [6] is “effect similar to Formula XX-A (ibrutinib)”.
